Molecular target: T1, AmNaV1 (Apis mellifera NaV1 voltage-gated sodium channel) (Apis mellifera, UniProt C9D7C5)
T1 construct: gene PARA; AmNaV1 channel expressed in Xenopus oocytes; with TipE regulatory subunit (honeybee)
Experiment: two-microelectrode voltage-clamp in Xenopus oocytes, tail current dose-response
Type: cell-based

T1 sequence (C9D7C5 1-2044): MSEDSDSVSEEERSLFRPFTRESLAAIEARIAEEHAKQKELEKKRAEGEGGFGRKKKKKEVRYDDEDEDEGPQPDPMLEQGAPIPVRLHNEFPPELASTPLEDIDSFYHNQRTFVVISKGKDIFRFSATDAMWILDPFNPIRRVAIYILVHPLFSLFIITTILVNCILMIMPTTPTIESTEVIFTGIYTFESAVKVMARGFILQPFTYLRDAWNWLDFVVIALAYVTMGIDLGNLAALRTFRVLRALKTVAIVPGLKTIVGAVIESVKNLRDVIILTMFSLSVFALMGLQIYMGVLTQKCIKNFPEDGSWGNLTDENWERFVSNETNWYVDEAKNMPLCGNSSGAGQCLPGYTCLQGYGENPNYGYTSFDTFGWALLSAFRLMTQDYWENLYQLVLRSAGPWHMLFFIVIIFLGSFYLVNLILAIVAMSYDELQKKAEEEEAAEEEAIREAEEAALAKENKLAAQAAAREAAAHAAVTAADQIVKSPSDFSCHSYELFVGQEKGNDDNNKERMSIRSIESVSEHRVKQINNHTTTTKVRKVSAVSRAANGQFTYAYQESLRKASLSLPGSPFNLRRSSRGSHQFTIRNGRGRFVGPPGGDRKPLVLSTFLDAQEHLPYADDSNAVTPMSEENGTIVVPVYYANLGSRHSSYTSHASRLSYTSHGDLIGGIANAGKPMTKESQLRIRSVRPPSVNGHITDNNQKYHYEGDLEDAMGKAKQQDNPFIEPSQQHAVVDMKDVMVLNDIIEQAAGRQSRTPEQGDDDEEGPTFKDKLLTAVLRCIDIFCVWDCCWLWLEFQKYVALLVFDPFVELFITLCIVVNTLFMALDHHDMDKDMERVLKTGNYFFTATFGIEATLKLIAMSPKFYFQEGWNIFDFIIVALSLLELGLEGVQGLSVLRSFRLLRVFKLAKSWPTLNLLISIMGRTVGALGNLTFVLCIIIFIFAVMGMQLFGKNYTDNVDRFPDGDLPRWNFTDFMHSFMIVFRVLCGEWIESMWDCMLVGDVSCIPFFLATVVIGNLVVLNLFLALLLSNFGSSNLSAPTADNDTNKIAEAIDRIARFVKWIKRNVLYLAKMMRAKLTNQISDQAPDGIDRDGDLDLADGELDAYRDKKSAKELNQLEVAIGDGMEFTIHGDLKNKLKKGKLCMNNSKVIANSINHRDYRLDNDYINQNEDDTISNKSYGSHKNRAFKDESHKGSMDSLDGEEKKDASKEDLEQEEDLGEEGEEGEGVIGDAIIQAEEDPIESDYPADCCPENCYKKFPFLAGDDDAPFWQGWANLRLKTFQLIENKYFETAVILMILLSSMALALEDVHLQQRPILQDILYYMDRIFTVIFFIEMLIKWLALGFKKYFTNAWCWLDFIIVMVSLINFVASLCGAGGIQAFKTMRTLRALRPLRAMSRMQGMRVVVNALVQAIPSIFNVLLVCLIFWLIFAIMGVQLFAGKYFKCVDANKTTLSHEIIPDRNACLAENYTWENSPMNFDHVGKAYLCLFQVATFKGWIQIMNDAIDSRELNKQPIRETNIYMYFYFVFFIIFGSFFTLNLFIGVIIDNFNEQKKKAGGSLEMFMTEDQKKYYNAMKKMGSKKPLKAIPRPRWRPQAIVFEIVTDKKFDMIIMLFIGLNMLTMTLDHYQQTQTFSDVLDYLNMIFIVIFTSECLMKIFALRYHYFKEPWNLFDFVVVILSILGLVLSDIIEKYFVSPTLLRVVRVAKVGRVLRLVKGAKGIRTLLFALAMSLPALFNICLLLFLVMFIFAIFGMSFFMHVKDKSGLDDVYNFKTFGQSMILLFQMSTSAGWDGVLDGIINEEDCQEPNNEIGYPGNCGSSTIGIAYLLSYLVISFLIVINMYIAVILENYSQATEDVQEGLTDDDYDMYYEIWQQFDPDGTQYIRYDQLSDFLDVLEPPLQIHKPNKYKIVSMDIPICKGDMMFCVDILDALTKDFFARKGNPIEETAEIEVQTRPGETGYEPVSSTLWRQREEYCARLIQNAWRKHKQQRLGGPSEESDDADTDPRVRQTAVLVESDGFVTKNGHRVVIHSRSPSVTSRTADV
T1 sequence (A0A120HXK1 1-238 partner): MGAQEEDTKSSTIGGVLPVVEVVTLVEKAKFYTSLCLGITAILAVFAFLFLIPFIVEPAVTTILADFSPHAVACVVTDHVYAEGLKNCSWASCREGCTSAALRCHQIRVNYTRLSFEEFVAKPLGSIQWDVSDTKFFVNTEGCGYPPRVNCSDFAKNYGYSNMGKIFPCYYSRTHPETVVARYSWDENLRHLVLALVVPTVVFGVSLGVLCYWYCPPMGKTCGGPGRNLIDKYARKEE

For `CC(C)C(C(=O)OC(C#N)c1cccc(Oc2ccccc2)c1)c1ccc(Cl)cc1` (stereo not shown) [fenvalerate], the EC50 was 0.29 µM.

— article PMC4894402, “Characterization of the honeybee AmNaV1 channel and tools to assess the toxicity of insecticides” (Scientific Reports, 2015)
